Test results: patent US12059422B2 (MEI Pharma, Inc., priority 2011, dated 2024)

Assays:
PI3K alpha = target: T1, PI3K alpha (Homo sapiens, UniProt P42336); assay: Luciferase-based luminescence assay (KinaseGlo), PI3K alpha enzymatic activity; assay type: biochemical; details: inhibition of enzymatic activity, 25 μM ATP, read-out: IC50 p110α
T1 construct: purchased Invitrogen Corp., Carlsbad, CA, USA
Protocol: PI3K catalyzes the conversion of phosphatidylinositol-4,5-bisphosphate (PIP2) and ATP to phosphatidylinositol-3,4,5-trisphosphate (PIP3) and ADP. For all assays, the reaction buffer comprised 50 mM HEPES, pH 7.5, 3 mM MgCl2, 1 mM EGTA, 100 mM NaCl, 0.03% CHAPS and 2 mM DTT. Compounds for testing were dissolved and serially diluted in 100% DMSO (total of 10 concentrations), then diluted 1:25 in reaction buffer.
PI3K alpha and PI3K delta enzymatic activity was determined by measuring the amount of ATP consumed following the kinase reaction using a luciferase-based luminescence assay (KinaseGlo®, Promega Corp., Madison, WI, USA). PI3K enzyme solutions were prepared by diluting PI3K alpha (Invitrogen Corp., Carlsbad, CA, USA) or PI3K delta (Millipore, Billerica, MA, USA) in reaction buffer, to 4× the final assay concentration (final concentrations of enzymes were 1.65 nM and 6.86 nM for PI3K alpha and PI3K delta, respectively). A substrate solution was prepared by mixing PIP2 and ATP in reaction buffer at 2× the final assay concentration (final concentrations were 50 μM and 25 μM for PIP2 and ATP respectively). 2.5 μL each of the compound and kinase mixtures were added to individual wells of white low volume 384-well assay plates and mixed by shaking. The reactions were started by adding 5 μL of substrate mixture per well and shaking. The assay plates were covered and reactions were allowed to proceed for 1 hour (PI3K alpha) or 2 hours (PI3K delta), after which 10 μL of Kinase Glo® reagent was added. The plates were briefly centrifuged and incubated for 10 minutes, after which luminescence was measured using a FlexStation plate reader (Molecular Devices, Sunnyvale, CA, USA). IC50 values were determined by curve fitting using Graphpad Prism software (Graphpad Software, La Jolla, CA, USA).

PI3Kβ = target: T2, PI3Kβ (Homo sapiens, UniProt P42338); assay: ELISA assay for PI3Kβ: in-cell ELISA, phosphorylation of AKT (Ser473) in PC-3 cells; assay type: cell-based; details: for IC50: cellular, pAKT (Ser473), PC-3 cells, LPA stimulation, read-out: IC50 p110β; for α/β ratio: ratio of cellular IC50 values, Table 2
T2 construct: endogenous in cells; host or cells: PC-3 (ATCC #CRL-1435)
Protocol: Cellular PI3Kβ activity was determined by measuring the phosphorylation of AKT (Ser473) using an in-cell ELISA assay. PC-3 (prostate carcinoma) cells were obtained from ATCC (ATCC #CRL-1435). Growth medium was DMEM (CellGro #CV-10-013-CV) supplemented with 10% fetal bovine serum, 100 IU/mL penicillin, 100 μg/mL streptomycin, and 1×MEM non-essential amino acids. Phosphate buffered saline (PBS) contained 2.7 M NaCl, 54 mM KCl, 86 mM […] (dibasic, anhydrous), 28 mM […] (monobasic, anhydrous), pH 7.2, 10× stimulation mixture contained 50 μM LPA (Cayman #62215) diluted in serum-free DMEM medium (CellGro #CV-10-013-CV). Compounds for testing were dissolved and serially diluted in 100% DMSO (total of 10 concentrations), then diluted in serum-free DMEM to 2× final assay concentration. 2× fixative solution contained 8% formaldehyde (Amresco #M134) diluted in PBS. Permeabilization solution contained PBS supplemented with 0.1% Triton X-100. Blocking buffer was obtained from LiCor (LiCor #927-40000). Wash buffer contained PBS supplemented with 0.1% Tween-20. Primary antibody solution was rabbit anti-pAKT^S473 monoclonal antibody (Cell Signaling #4060) and mouse anti-total S6 (Santa Cruz #74459) diluted 1:500 and 1:2000, respectively, in blocking buffer. Secondary antibody solution was IRDye 800CW-conjugated goat anti-rabbit IgG (LiCor #926-32211) and IRDye 680LT-conjugated goat anti-mouse IgG (LiCor #926-68020) diluted 1:2000 and 1:1000, respectively, in blocking buffer.
PC-3 cells were subcultured in growth medium and seeded into flat, clear bottom, 96-well plates (Corning #3904) at 16000 cells/well, then incubated overnight in a 37° C., 5% CO2 incubator. Growth medium in plates was replaced with 100 μL/well serum-free DMEM and incubated overnight in a 37° C., 5% CO2 incubator. 50 μL/well of fresh serum-free DMEM was added to plates. Compound treatment was performed by adding 50 μL/well of 2× compound mixture to plates and incubating for 2 hrs at 37° C., 5% CO2, after which 11 μL/well of 10× stimulation mixture was added and plates were incubated for 10 min at 37° C., 5% CO2. Fixation was performed by adding 110 μL/well of 2× fixative solution to plates and incubating for 20 min at room temperature. Permeabilization was performed by replacing fixation solution with 150 μL/well permeabilization solution and incubating for 10 min at room temperature. Permeabilization was repeated (for a total of 2 times). Permeabilization solution was replaced with 100 μL/well blocking buffer and plates were incubated for 1 hr at room temperature, after which 100 μL/well of primary antibody solution was added and plates were incubated overnight at 4° C. Plates were washed with wash buffer, after which 100 μL/well of secondary antibody solution was added to the plates and incubated in the dark for 1 hr at room temperature. Plates were washed with wash buffer, followed by awash with PBS. After completely removing PBS, plates were scanned on the Licor Odyssey Imager. Images quantified using Licor Odyssey application software. IC50 values were determined by curve fitting using a Collaborative Drug Discovery database (www.collaborativedrug.com).

T1 sequence (P42336 whole entry, species assumed): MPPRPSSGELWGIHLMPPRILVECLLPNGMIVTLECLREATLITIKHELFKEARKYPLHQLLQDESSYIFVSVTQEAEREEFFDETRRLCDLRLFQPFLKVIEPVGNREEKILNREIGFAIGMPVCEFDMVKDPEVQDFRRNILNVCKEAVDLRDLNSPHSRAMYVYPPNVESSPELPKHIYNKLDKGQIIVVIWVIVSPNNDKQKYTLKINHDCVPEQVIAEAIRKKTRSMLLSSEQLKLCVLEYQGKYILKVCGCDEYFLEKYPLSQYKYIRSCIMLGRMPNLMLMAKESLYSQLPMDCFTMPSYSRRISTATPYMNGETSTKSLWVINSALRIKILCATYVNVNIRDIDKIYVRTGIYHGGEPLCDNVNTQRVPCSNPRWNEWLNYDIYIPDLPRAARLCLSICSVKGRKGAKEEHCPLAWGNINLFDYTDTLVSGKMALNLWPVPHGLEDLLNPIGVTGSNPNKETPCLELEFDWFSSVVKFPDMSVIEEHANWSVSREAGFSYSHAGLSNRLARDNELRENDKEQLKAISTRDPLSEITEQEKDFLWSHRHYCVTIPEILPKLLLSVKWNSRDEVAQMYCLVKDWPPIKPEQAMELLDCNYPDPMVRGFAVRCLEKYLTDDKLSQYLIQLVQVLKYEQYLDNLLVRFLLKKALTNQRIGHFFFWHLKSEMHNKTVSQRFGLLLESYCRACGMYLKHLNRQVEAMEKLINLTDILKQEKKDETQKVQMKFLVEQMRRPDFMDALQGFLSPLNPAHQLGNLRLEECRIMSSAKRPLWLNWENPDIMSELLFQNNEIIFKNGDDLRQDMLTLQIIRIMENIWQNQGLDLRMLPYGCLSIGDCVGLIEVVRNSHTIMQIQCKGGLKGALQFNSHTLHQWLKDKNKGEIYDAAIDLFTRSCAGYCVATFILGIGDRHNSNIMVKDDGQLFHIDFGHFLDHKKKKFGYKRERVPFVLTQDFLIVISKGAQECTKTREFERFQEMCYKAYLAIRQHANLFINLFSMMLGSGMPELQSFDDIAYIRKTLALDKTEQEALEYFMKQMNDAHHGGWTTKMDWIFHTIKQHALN
T1 sequence (P27986 whole entry partner, species assumed): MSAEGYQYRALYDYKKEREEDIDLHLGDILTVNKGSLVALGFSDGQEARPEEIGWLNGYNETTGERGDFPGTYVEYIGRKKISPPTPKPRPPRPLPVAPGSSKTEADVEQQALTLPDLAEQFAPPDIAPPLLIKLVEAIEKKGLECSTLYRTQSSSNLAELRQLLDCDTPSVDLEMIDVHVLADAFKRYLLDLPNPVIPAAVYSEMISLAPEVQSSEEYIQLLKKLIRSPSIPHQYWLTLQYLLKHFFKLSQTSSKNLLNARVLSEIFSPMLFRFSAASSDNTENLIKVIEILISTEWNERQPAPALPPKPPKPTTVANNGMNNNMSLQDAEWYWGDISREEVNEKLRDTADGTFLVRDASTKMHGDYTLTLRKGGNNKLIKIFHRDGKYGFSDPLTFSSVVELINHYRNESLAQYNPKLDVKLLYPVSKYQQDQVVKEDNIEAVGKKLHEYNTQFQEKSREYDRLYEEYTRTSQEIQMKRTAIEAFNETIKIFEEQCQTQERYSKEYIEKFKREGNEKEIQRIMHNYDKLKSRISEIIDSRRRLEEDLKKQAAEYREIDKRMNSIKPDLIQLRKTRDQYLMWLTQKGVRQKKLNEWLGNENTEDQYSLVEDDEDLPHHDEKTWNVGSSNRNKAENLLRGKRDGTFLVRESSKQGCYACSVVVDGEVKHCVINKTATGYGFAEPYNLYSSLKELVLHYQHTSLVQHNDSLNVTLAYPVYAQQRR
T2 sequence (P42338 whole entry): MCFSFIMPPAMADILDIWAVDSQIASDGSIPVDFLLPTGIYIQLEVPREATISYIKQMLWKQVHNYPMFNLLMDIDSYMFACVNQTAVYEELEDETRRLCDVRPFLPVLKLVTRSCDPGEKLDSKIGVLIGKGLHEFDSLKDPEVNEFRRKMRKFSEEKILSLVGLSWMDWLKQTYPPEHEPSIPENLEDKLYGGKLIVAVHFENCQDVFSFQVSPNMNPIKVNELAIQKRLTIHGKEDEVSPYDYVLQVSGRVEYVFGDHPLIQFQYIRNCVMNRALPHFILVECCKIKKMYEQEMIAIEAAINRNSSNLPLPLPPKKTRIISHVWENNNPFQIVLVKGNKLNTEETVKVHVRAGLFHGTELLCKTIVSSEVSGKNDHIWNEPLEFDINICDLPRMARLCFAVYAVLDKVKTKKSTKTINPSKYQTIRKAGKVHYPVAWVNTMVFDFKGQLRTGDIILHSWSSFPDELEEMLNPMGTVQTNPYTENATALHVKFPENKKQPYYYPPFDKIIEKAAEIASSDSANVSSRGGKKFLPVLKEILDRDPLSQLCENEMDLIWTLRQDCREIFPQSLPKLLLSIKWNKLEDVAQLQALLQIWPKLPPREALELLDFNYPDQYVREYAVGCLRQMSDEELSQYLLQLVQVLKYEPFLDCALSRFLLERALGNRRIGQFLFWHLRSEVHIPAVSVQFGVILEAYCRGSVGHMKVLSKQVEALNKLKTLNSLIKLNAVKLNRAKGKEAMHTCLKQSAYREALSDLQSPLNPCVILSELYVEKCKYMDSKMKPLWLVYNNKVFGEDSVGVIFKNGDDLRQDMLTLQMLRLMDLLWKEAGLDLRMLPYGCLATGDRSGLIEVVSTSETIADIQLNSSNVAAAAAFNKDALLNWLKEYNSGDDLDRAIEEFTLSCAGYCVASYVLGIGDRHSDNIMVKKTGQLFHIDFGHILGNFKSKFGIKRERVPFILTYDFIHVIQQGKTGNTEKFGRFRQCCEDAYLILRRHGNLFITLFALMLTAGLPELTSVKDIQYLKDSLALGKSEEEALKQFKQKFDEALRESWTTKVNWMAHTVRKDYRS
T2 sequence (P27986 whole entry partner): as the sequence (P27986 whole entry partner, species assumed) above

| IC50 (PI3K alpha) [nM] | IC50 (PI3Kβ) [nM] | α/β ratio (PI3Kβ) | SMILES |
| --- | --- | --- | --- |
| > 500 | 100 to 200 | A’ | CC(C)(Cc1ccccc1-c1ccccc1F)Nc1nc(N2CCOCC2)nc(-n2c(C(F)F)nc3ccccc32)n1 [Compound A59, 4-(2-(difluoromethyl)-1H-benzo[d]imidazol-1-yl)-N-(1-(2′-fluorobiphenyl-2-yl)-2-methylpropan-2-yl)-6-morpholino-1,3,5-triazin-2-amine] |
| > 500 | 100 to 200 | A’ | COc1cccc(CC(C)(C)Nc2nc(N3CCOCC3)nc(-n3c(C(F)F)nc4ccccc43)n2)c1 [Compound A21, 4-(2-(difluoromethyl)-1H-benzo[d]imidazol-1-yl)-N-(1-(3-methoxyphenyl)-2-methylpropan-2-yl)-6-morpholino-1,3,5-triazin-2-amine] |
| > 500 | ≤ 100 | C’ | CC(C)(Cc1c(F)cccc1F)Nc1nc(N2CCOCC2)nc(-n2c(C(F)F)nc3ccccc32)n1 [Compound A52, 4-(2-(difluoromethyl)-1H-benzo[d]imidazol-1-yl)-N-(1-(2,6-difluorophenyl)-2-methylpropan-2-yl)-6-morpholino-1,3,5-triazin-2-amine] |
| > 500 | ≤ 100 | A’ | CN(C)CCCc1ccccc1CC(C)(C)Nc1nc(N2CCOCC2)nc(-n2c(C(F)F)nc3ccccc32)n1 [Compound A76, 4-(2-(difluoromethyl)-1H-benzo[d]imidazol-1-yl)-N-(1-(2-(3-(dimethylamino)propyl)phenyl)-2-methylpropan-2-yl)-6-morpholino-1,3,5-triazin-2-amine] |
| > 500 | ≤ 100 | A’ | CN1CCC(c2ccccc2CC(C)(C)Nc2nc(N3CCOCC3)nc(-n3c(C(F)F)nc4ccccc43)n2)CC1 [Compound A35, 4-(2-(difluoromethyl)-1H-benzo[d]imidazol-1-yl)-N-(2-methyl-1-(2-(1-methylpiperidin-4-yl)phenyl)propan-2-yl)-6-morpholino-1,3,5-triazin-2-amine] |
| > 500 | ≤ 100 | C’ | CC(C)(Cc1ccc(F)cc1)Nc1nc(N2CCOCC2)nc(-n2c(C(F)F)nc3ccccc32)n1 [Compound A22, 4-(2-(difluoromethyl)-1H-benzo[d]imidazol-1-yl)-N-(1-(4-fluorophenyl)-2-methylpropan-2-yl)-6-morpholino-1,3,5-triazin-2-amine] |
| > 500 | 100 to 200 | C’ | CC(C)(Cc1ccc(F)cc1F)Nc1nc(N2CCOCC2)nc(-n2c(C(F)F)nc3ccccc32)n1 [Compound A51, 4-(2-(difluoromethyl)-1H-benzo[d]imidazol-1-yl)-N-(1-(2,4-difluorophenyl)-2-methylpropan-2-yl)-6-morpholino-1,3,5-triazin-2-amine] |
| > 500 | ≤ 100 | A’ | CC(C)(Cc1ccccc1-c1cccc(CN2CCOCC2)c1)Nc1nc(N2CCOCC2)nc(-n2c(C(F)F)nc3ccccc32)n1 [Compound A65, 4-(2-(difluoromethyl)-1H-benzo[d]imidazol-1-yl)-N-(2-methyl-1-(3′-(morpholinomethyl)biphenyl-2-yl)propan-2-yl)-6-morpholino-1,3,5-triazin-2-amine] |
| > 500 | ≤ 100 | C’ | Cc1ccccc1CC(C)(C)Nc1nc(N2CCOCC2)nc(-n2c(C(F)F)nc3ccccc32)n1 [Compound A18, 4-(2-(difluoromethyl)-1H-benzo[d]imidazol-1-yl)-N-(2-methyl-1-(o-tolyl)propan-2-yl)-6-morpholino-1,3,5-triazin-2-amine] |
| > 500 | 200 to 500 | A’ | Cc1ccccc1-c1ccccc1CC(C)(C)Nc1nc(N2CCOCC2)nc(-n2c(C(F)F)nc3ccccc32)n1 [Compound A60, 4-(2-(difluoromethyl)-1H-benzo[d]imidazol-1-yl)-N-(2-methyl-1-(2′-methylbiphenyl-2-yl)propan-2-yl)-6-morpholino-1,3,5-triazin-2-amine] |
| > 500 | ≤ 100 | A’ | CC(C)(Cc1ccccc1C1CCNCC1)Nc1nc(N2CCOCC2)nc(-n2c(C(F)F)nc3ccccc32)n1 [Compound A68, 4-(2-(difluoromethyl)-1H-benzo[d]imidazol-1-yl)-N-(2-methyl-1-(2-(piperidin-4-yl)phenyl)propan-2-yl)-6-morpholino-1,3,5-triazin-2-amine] |
| > 500 | ≤ 100 | B’ | Cc1cccc(CC(C)(C)Nc2nc(N3CCOCC3)nc(-n3c(C(F)F)nc4ccccc43)n2)c1 [Compound A49, 4-(2-(difluoromethyl)-1H-benzo[d]imidazol-1-yl)-N-(2-methyl-1-m-tolylpropan-2-yl)-6-morpholino-1,3,5-triazin-2-amine] |
| > 500 | 100 to 200 | A’ | CC(C)(Cc1ccccc1-c1ccccc1Cl)Nc1nc(N2CCOCC2)nc(-n2c(C(F)F)nc3ccccc32)n1 [Compound A61, 4-(2-(difluoromethyl)-1H-benzo[d]imidazol-1-yl)-N-(1-(6′-chlorobiphenyl-2-yl)-2-methylpropan-2-yl)-6-morpholino-1,3,5-triazin-2-amine] |
| 100 to 200 | ≤ 100 | A’ | Cn1cc(-c2ccccc2CC(C)(C)Nc2nc(N3CCOCC3)nc(-n3c(C(F)F)nc4ccccc43)n2)cn1 [Compound A45, 4-(2-(difluoromethyl)-1H-benzo[d]imidazol-1-yl)-N-(2-methyl-1-(2-(1-methyl-1H-pyrazol-4-yl)phenyl)propan-2-yl)-6-morpholino-1,3,5-triazin-2-amine] |
| > 500 | ≤ 100 | A’ | CCN1CCC(c2ccccc2CC(C)(C)Nc2nc(N3CCOCC3)nc(-n3c(C(F)F)nc4ccccc43)n2)CC1 [Compound A70, 4-(2-(difluoromethyl)-1H-benzo[d]imidazol-1-yl)-N-(1-(2-(1-ethylpiperidin-4-yl)phenyl)-2-methylpropan-2-yl)-6-morpholino-1,3,5-triazin-2-amine] |
| – | ≤ 100 | A’ | CN1CCC(c2ccccc2CC(C)(C)Nc2nc(N3CCOCC3)nc(-n3c(C(F)F)nc4ccccc43)n2)C1 (centres unmarked) [Compound A75, 4-(2-(difluoromethyl)-1H-benzo[d]imidazol-1-yl)-N-(2-methyl-1-(2-(1-methylpyrrolidin-3-yl)phenyl)propan-2-yl)-6-morpholino-1,3,5-triazin-2-amine] |
